Four compounds from patent publication US5846731A, “Peralkylated oligopeptide mixtures” (Torry Pines Institute for Molecular Studies, priority 1993, dated 1998) can be followed below.

The term MIC denotes the lowest concentration that inhibits growth of the organism. Read a low MIC as inhibition by little substance. In general, pIC50 refers to −log10 of the IC50, conventionally taken in molar units.

For this assay, the system named is Staphylococcus aureus (ATCC 29213). In words: Antimicrobial activity against S. aureus (growth inhibition, OD 620 nm). The note with it: for MIC: minimum concentration to inhibit about 100 percent bacterial growth; for pIC50: individual permethylated peptides. Format: cell-based. The procedure:
The two types of libraries of positional libraries of Example 5 were also scanned against Staphylococcus aureus a Gram-positive bacterium. Concentrations of those 5× permethylated peptide mixtures that inhibited cellular growth by 50 percent (IC50) values were determined.
The permethylated amino acid and peptides were screened against S. aureus, as described before and IC50 and MIC (minimum inhibitory concentration; minimum concentration needed to inhibit about 100 percent bacterial growth) values were determined.
Staphylococcus aureus (ATCC 29213) were grown overnight (about 18 hours) at 37° C. in Mueller-Hinton (MH) broth. This culture was reinoculated and incubated at 37° C. to reach the exponential phase of bacterial growth; i.e., a final bacterial suspension containing about 10^5 to 5×10^5 colony-forming units (CFU)/ml. The concentration of cells was established by plating 100 μl of different dilutions of the culture solution (e.g., 10^-2, 10^-3 and 10^-4) onto solid agar plates. Following an overnight (about 18 hours) incubation at 37° C., the CFU thus formed were counted on each agar plate.
96-Well tissue culture plates were utilized, with eight wells per plate containing only medium as control blanks, whereas eight other wells contained medium plus cells as a positive growth control. These controls were used to detect possible medium contamination and to provide a measure of uninhibited growth of the microorganisms.
For determination of IC50 values (concentrations necessary to inhibit 50 percent growth of bacteria), peralkylated oligopeptide sets were added to the bacterial suspension at concentrations noted before. The plates were incubated overnight (about 18 hours) at 37° C., and the optical density (OD) determined at 620 nm after different times of incubation. IC50 Values were then determined from the OD data.

Where [1] appears, read: Staphylococcus aureus, ATCC29213, Assay 1.
Where [2] appears, read: Staphylococcus aureus, ATCC29213, Assay 2.

pIC50: −log10 of the molar value. Values after ≈ are worked out from the molar mass of the structure shown.

Turning to `CC[C@H]1OC(=O)[C@H](C)[C@@H](O[C@H]2C[C@@](C)(OC)[C@@H](O)[C@H](C)O2)[C@H](C)[C@@H](O[C@@H]2O[C@H](C)C[C@H](N(C)C)[C@H]2O)[C@](C)(O)C[C@@H](C)C(=O)[C@H](C)[C@@H](O)[C@]1(C)O` [Erythromycin, erythromycin], the MIC by setting is: (Assay 2) 0.5 µM (≈ 0.367 µg/mL); under setting [1], 0.5 µM (≈ 0.367 µg/mL). The negative-log IC50 (pIC50) was 6.74 under setting [1] and 6.87 under setting [2].
For `Cc1onc(-c2ccccc2)c1C(=O)N[C@@H]1C(=O)N2[C@@H]1SC(C)(C)[C@@H]2C(=O)O` [Oxacillin, oxacillin], the minimal inhibitory concentration (MIC) is, setting by setting: (Assay 2) 0.125 µM (≈ 0.0502 µg/mL); under setting [1], 0.125 µM (≈ 0.0502 µg/mL). For the same compound, the pIC50 is 7.38 under setting [1] and 6.43 under setting [2].
`CNC(=O)[C@H](Cc1ccccc1)[N+](C)(C)C` [PerA--F, permethylated Phe N-methylamide] gave a minimum inhibitory concentration (MIC) (Assay 1) above 500 µM and an MIC (Assay 2) above 500 µM.
Take “Ac-FFFFFF-NH2 [N--Ac--hexaPhe, N-acetyl hexaPhe amide]”: under “Assay 1”, the negative logarithm of the IC50 (pIC50) is below 3.30 and the MIC is listed as above 500 µM. Besides, where the note is “Assay 2”, the pIC50 was below 3.30 and the MIC is above 500 µM.
